Drawing on ChEMBL document CHEMBL5725619, “Substituted oxopyridine derivatives” (2018), this text covers IC50 for one compound.

SMILES strings stand for the structures.

The experiment can be described thus: Plasma Kallikrein Assay: Test substances are dissolved in dimethyl sulphoxide and serially diluted in dimethyl sulphoxide (3000 μM to 0.0078 μM; resulting final concentrations in the test: 50 μM to 0.00013 μM). 1 μl of the diluted substance solutions is placed into each of the wells of white microtitre plates from Greiner (384 wells). 20 μl of assay buffer (50 mM Tris/HCl pH 7.4; 100 mM sodium chloride solution; 5 mM of calcium chloride solution; 0.1% of bovine serum albumin) and 20 μl of plasma kallikrein from Kordia (0.6 nM in assay buffer) are then added successively. After 15 min of incubation, the enzyme reaction is started by addition of 20 μl of the substrate H-Pro-Phe-Arg-AMC dissolved in assay buffer (10 μM in assay buffer) from Bachem, the mixture is incubated at room temperature (22° C.) for 30 min and fluorescence is then measured (excitation: 360 nm, emission: 460 nm). The measured emissions of the test batches with test substance are compared to those of control batches without test substance (only dimethyl sulphoxide instead of test substance in dimethyl sulphoxide), and IC50 values are calculated from the concentration/activity relationships.

By IC50 is commonly meant the midpoint of a concentration-inhibition curve. In the case of `COCCC(C(=O)Nc1cc(F)c(C(N)=O)s1)n1cc(OC)c(-c2cc(Cl)ccc2C#N)cc1=O` (stereo unspecified), the IC50 is 100 nM.
